According to publication PMC4409337, “Immucillins Impair Leishmania (L.) infantum chagasi and Leishmania (L.) amazonensis Multiplication In Vitro” (PLoS ONE, 2015):

Tests used:
[1] = Macrophage viability and cytotoxicity (Trypan Blue); conditions: female, BALB/c, mouse, peritoneal macrophages
Protocol: Alternatively, the immucillins were added at 0, 24 and 48 h and viability assessed after 72h. […] The amastigote growth was assessed 24 h after the last drug addition, on 200 cells in Giemsa stained coverslips and expressed as phagocytic index = percent of infected macrophages x average number of intracellular amastigotes. […] All experiments with mice were reviewed and approved by the Animal Care and Use Committee of the Instituto de Biofísica Carlos Chagas Fo.-UFRJ (CAUAP-CONCEA, Brazil, IMPPG-016) and were performed according to the guidelines of the National Institutes of Health, USA. We made all efforts in order to minimize animal suffering.

[2] = system: L. (L.) infantum chagasi promastigotes; experiment: Transmission electron microscopy of treated promastigotes; assay type: cell-based, Leishmania (L.) infantum chagasi; conditions: 10 μM, 72 h
Source text: The cells were washed with Milli Q water, dehydrated in increasing concentration of acetone and embedded in Epon (1: 1) (PolyBed 812). The ultrathin sections were obtained, contrasted with 5% uranyl acetate and lead citrate and observed under a Joel 1200 electron microscope.

Question: Which CC50 at 48 h [1] does the source give for Nc1ncnc2c(C3N[C@H](CO)[C@@H](O)[C@H]3O)c[nH]c12 (some centres unmarked) [IA] here?
Answer: 900 µM

Question: And the “effect on cellular ultrastructure of promastigotes” value [2]?
Answer: global alterations on their cellular morphology
